Values after ≈ are worked out from the molar mass of the structure shown. Active and inactive are the calls of the source. The calls are words filed in the database; no cut-off is given here.
What was measured:
[1] = test system: Bacillus subtilis; experiment: Antibacterial activity against Bacillus subtilis 168 assessed as inhibition of bacterial growth at 10 uM incubated for 6 hrs by agar plate assay; assay type: functional, organism-based
[2] = target: T1, Cell division protein FtsZ (Streptococcus pneumoniae serotype 2 (strain D39 / NCTC 7466)) (UniProt A0A0H2ZNE0); experiment: Inhibition of Streptococcus pneumoniae FtsZ polymerization at 5 to 40 uM pretreated for 20 mins followed by GTP addition and measured for 20 mins by tryptophan fluorescence based spectrofluorometric analysis; settings: dose 5-40 µM, time 40.0 min
T1 sequence (whole entry): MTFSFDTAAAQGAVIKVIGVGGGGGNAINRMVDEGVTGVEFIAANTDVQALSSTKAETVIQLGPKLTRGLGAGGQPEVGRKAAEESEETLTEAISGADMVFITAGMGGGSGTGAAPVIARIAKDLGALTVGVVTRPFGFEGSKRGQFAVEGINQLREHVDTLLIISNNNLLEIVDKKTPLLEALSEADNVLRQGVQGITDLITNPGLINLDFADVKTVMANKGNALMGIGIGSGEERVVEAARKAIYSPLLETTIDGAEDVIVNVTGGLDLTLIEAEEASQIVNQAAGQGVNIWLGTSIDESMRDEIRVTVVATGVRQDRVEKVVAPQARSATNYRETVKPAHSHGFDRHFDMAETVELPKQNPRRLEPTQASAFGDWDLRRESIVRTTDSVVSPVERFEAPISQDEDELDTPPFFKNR

[3] = test system: Streptococcus pneumoniae; experiment: Antibacterial activity against Streptococcus pneumoniae TIGR4 assessed as inhibition of bacterial growth at 10 uM incubated for 24 hrs by agar plate assay; assay type: functional
[4] = target: T1, Cell division protein FtsZ (Streptococcus pneumoniae serotype 2 (strain D39 / NCTC 7466)); experiment: Inhibition of Streptococcus pneumoniae FtsZ assessed as increase in GTPase activity by measuring increase in inorganic phosphate release at >20 uM pretreated for 20 mins followed by GTP addition and measured after 10 mins by malachite green assay based UV-Vis spectrophometry; settings: time 30.0 min
[5] = test system: Mycobacterium tuberculosis; experiment: Antibacterial activity against Mycobacterium tuberculosis H37; assay type: functional
[6] = test system: Bacillus subtilis; experiment: Antibacterial activity against Bacillus subtilis; assay type: functional
[7] = target: T1, Cell division protein FtsZ (Streptococcus pneumoniae serotype 2 (strain D39 / NCTC 7466)); experiment: Inhibition of Streptococcus pneumoniae FtsZ assessed as inhibition of rate of polymerization at 40 uM pretreated for 20 mins followed by GTP addition and measured for 20 mins by tryptophan fluorescence based spectrofluorometric analysis; settings: time 40.0 min
[8] = test system: Klebsiella pneumoniae; experiment: Antibacterial activity against Klebsiella pneumoniae assessed as inhibition of bacterial growth at 10 to 20 uM incubated for 4 hrs; assay type: functional, organism-based; settings: dose 10-20 µM
[9] = target: T1, Cell division protein FtsZ (Streptococcus pneumoniae serotype 2 (strain D39 / NCTC 7466)); experiment: Inhibition of Streptococcus pneumoniae FtsZ assessed as inhibition of extent of polymerization at 30 uM pretreated for 20 mins followed by GTP addition and measured for 20 mins by light scattering based analysis; settings: time 40.0 min
[10] = test system: Streptococcus pneumoniae; experiment: Bactericidal activity against Streptococcus pneumoniae TIGR4 assessed as induction of cell death by measuring proportion of PI-stained bacteria at 20 ug/ml incubated for 12 hrs by propidium iodide staining based confocal microscopy (reference value: 2%); assay type: functional; settings: dose 20 µg/ml
[11] = target: T1, Cell division protein FtsZ (Streptococcus pneumoniae serotype 2 (strain D39 / NCTC 7466)); experiment: Inhibition of Streptococcus pneumoniae FtsZ assessed as inhibition of extent of polymerization at 40 uM pretreated for 20 mins followed by GTP addition and measured for 20 mins by light scattering based analysis; settings: time 40.0 min
[12] = target: T1, Cell division protein FtsZ (Streptococcus pneumoniae serotype 2 (strain D39 / NCTC 7466)); experiment: Inhibition of Streptococcus pneumoniae FtsZ assessed as time required to start of polymerization at 40 uM pretreated for 20 mins followed by GTP addition and measured for 20 mins by tryptophan fluorescence based spectrofluorometric analysis (reference value: 37 +/-18 sec); settings: time 40.0 min
[13] = target: T1, Cell division protein FtsZ (Streptococcus pneumoniae serotype 2 (strain D39 / NCTC 7466)); experiment: Inhibition of Streptococcus pneumoniae FtsZ polymerization assessed as length of polymers at 40 uM preincubated for 20 mins followed by GTP addition for 200 secs and later incubated on copper-TEM grid for 5 mins by transmission electron microscopy (reference value: 61 +/-26 nm); settings: time 1700.0 sec
[14] = test system: Streptococcus pneumoniae; experiment: Induction of DNA nucleoid segregation in Streptococcus pneumoniae at 40 uM incubated for 30 mins by DAPI staining based immunostaining analysis; assay type: functional, organism-based
[15] = test system: Vibrio cholerae; experiment: Antibacterial activity against Vibrio cholerae assessed as inhibition of bacterial growth at 10 to 20 uM incubated for 4 hrs; assay type: functional, organism-based; settings: dose 10-20 µM
[16] = target: T1, Cell division protein FtsZ (Streptococcus pneumoniae serotype 2 (strain D39 / NCTC 7466)); experiment: Inhibition of Streptococcus pneumoniae FtsZ polymerization assessed as very short and thin polymers at 40 uM preincubated for 20 mins followed by GTP addition for 200 secs and later incubated on copper-TEM grid for 5 mins by transmission electron microscopy; settings: time 1700.0 sec
[17] = target: T1, Cell division protein FtsZ (Streptococcus pneumoniae serotype 2 (strain D39 / NCTC 7466)); experiment: Inhibition of Streptococcus pneumoniae FtsZ assessed as rate of polymerization at 40 uM pretreated for 20 mins followed by GTP addition and measured for 20 mins by tryptophan fluorescence based spectrofluorometric analysis (reference value: 0.19 +/-0.02 au/s); settings: time 40.0 min
[18] = test system: Streptococcus pyogenes; experiment: Antibacterial activity against Streptococcus pyogenes assessed as inhibition of bacterial growth at 10 to 20 uM incubated for 20 hrs; assay type: functional, organism-based; settings: dose 10-20 µM
[19] = Antiproliferative activity against human HeLa cells assessed as inhibition of cell growth incubated for 24 hrs by SRB assay; assay type: toxicity, cell-based
[20] = target: T1, Cell division protein FtsZ (Streptococcus pneumoniae serotype 2 (strain D39 / NCTC 7466)); experiment: Inhibition of Streptococcus pneumoniae FtsZ polymerization at 20 uM preincubated for 20 mins followed by GTP addition for 3 mins by atomic force microscopy; settings: time 23.0 min
[21] = test system: Streptococcus pneumoniae; experiment: Bactericidal activity against Streptococcus pneumoniae TIGR4 assessed as induction of cell death by measuring proportion of PI-stained bacteria at 40 ug/ml incubated for 12 hrs by propidium iodide staining based confocal microscopy (reference value: 2%); assay type: functional; settings: dose 40 µg/ml
[22] = test system: Escherichia coli; experiment: Antibacterial activity against Escherichia coli K12 assessed as inhibition of bacterial growth at 10 to 20 uM incubated for 4 hrs; assay type: functional, organism-based; settings: dose 10-20 µM
[23] = target: T1, Cell division protein FtsZ (Streptococcus pneumoniae serotype 2 (strain D39 / NCTC 7466)); experiment: Inhibition of Streptococcus pneumoniae FtsZ assessed as increase in GTPase activity by measuring increase in inorganic phosphate release upto 20 uM pretreated for 20 mins followed by GTP addition and measured after 10 mins by malachite green assay based UV-Vis spectrophometry; settings: time 30.0 min
[24] = target: T1, Cell division protein FtsZ (Streptococcus pneumoniae serotype 2 (strain D39 / NCTC 7466)); experiment: Inhibition of FtsZ in Streptococcus pneumoniae assessed as improper distribution of FtsZ throughout the cells at 40 uM incubated for 30 mins by DAPI staining based immunostaining analysis
[25] = target: T1, Cell division protein FtsZ (Streptococcus pneumoniae serotype 2 (strain D39 / NCTC 7466)); experiment: Inhibition of FtsZ in Streptococcus pneumoniae assessed as propotion of cells with intact Z-ring at 40 uM incubated for 30 mins by DAPI staining based immunostaining analysis (reference value: 92%); set-up: scale not given: the % may be the effect or the level left
[26] = test system: Bacillus subtilis; experiment: Antibacterial activity against Bacillus subtilis 168 assessed as inhibition of bacterial growth at 10 to 20 uM incubated for 4 hrs; assay type: functional, organism-based; settings: dose 10-20 µM
[27] = test system: Streptococcus pneumoniae; experiment: Induction of membrane disruption in Streptococcus pneumoniae TIGR4 at 40 uM incubated for 30 mins by FM4-64 live cell staining based confocal microscopy; assay type: functional, organism-based
[28] = test system: Streptococcus pneumoniae; experiment: Antibacterial activity against Streptococcus pneumoniae TIGR4 assessed as inhibition of bacterial proliferation incubated for 24 hrs by CLSI based analysis; assay type: functional, organism-based
[29] = test system: Staphylococcus aureus; experiment: Antibacterial activity against Staphylococcus aureus assessed as inhibition of bacterial growth at 10 to 20 uM incubated for 4 hrs; assay type: functional, organism-based; settings: dose 10-20 µM
[30] = test system: Staphylococcus aureus; experiment: Antibacterial activity against Staphylococcus aureus; assay type: functional
[31] = test system: Acinetobacter baumannii; experiment: Antibacterial activity against Acinetobacter baumannii ATCC 19606 assessed as inhibition of bacterial growth incubated for 18 hrs by microbroth dilution method; assay type: functional
[32] = test system: Staphylococcus aureus; experiment: Antibacterial activity against Staphylococcus aureus assessed as inhibition of bacterial growth incubated for 16 to 24 hrs by CLSI based microdilution assay; assay type: functional; settings: time 16-24 hrs
[33] = test system: Bacillus subtilis; experiment: Antibacterial activity against Bacillus subtilis 168 assessed as inhibition of bacterial growth incubated for 6 hrs by agar dilution method; assay type: functional
[34] = test system: Streptococcus pneumoniae; experiment: Antibacterial activity against Streptococcus pneumoniae TIGR4 assessed as inhibition of bacterial growth incubated for 24 hrs by agar dilution method; assay type: functional

CCOC(=O)c1c(CSc2ccc3ccccc3c2)nc2ccc(Br)cn12
Activity [1]: inactive
inhibition [2]: Active
inhibition at 10 µM [3]: 54%
inhibition [4]: inactive

CCOC(=O)c1c(CSc2ccc([N+](=O)[O-])cc2)nc2ccc(Br)cn12
Activity [1]: inactive
inhibition at 10 µM [3]: 0%

CC(NC(=O)c1nc2ccccc2n1-c1ccccc1)c1ccccc1 (stereo unspecified)
MIC [5]: 0.78 µg/mL (≈ 2.28 µM)
MIC [6]: 1.56 µg/mL (≈ 4.57 µM)

CCOC(=O)c1c(CSc2ccccc2OC)nc2ccc(Br)cn12
Activity [1]: inactive
inhibition at 10 µM [3]: 17%

CCOC(=O)c1c(CSc2ccc(Cl)cc2)nc2ccc(Br)cn12
Activity [1]: inactive
inhibition at 10 µM [3]: 17%

CCOC(=O)c1c(CSc2ccccc2Br)nc2ccc(Br)cn12
Activity [1]: inactive
inhibition at 10 µM [3]: 0%

CCOC(=O)c1c(CSc2ccccc2)nc2ccc(Br)cn12
Activity [1]: inactive
inhibition at 10 µM [3]: 25%

CCOC(=O)c1c(CSc2ccc(OC)cc2)nc2ccc(Br)cn12
inhibition [7]: 75%
Activity [8]: inactive
inhibition [9]: 34%
Activity [10]: 17%
inhibition [11]: 59%
TIME [12]: 0.0644 h
Activity [13]: 13 nm
Activity [14]: inactive
Activity [15]: inactive
inhibition [16]: Active
INH [17]: 0.05 AU/sec
Activity [1]: inactive
inhibition [2]: Active
inhibition at 10 µM [3]: 67%
Activity [18]: Active
IC50 at 24 h [19]: 41 µM
inhibition [20]: Active
Activity [21]: 28%
Activity [22]: inactive
inhibition [23]: Active
inhibition [24]: 54%
Activity [25]: 46%
Activity [26]: inactive
Activity [27]: inactive
IC50 ([28]; TIGR4, 24 h): 17 µM
MIC ([28]; TIGR4, time 24 hrs): 20 µg/mL (≈ 47.5 µM)
Activity [29]: inactive

NC(=O)c1c(F)ccc(OCc2nc3cc(Cl)cnc3s2)c1F
MIC [30]: 0.5 µg/mL (≈ 1.41 µM)
MIC [6]: 1 µg/mL (≈ 2.81 µM)

Cc1nc2ccccc2n1C(=O)/C=C/c1ccc(Br)cc1
MIC [31]: 32 µg/mL (≈ 93.8 µM)

CC1=CC(=O)c2ccccc2C1=O [MENADIONE]
inhibition at 10 µM [3]: 100%

CCOC(=O)c1c(CSc2ccncc2)nc2ccc(Br)cn12
Activity [1]: inactive
inhibition at 10 µM [3]: 31%

CCOC(=O)c1c(CSc2ccc(Br)cc2)nc2ccc(Br)cn12
Activity [1]: inactive
inhibition at 10 µM [3]: 0%

NC(=O)c1c(F)ccc(OCc2nc3cc(C(F)(F)F)cnc3s2)c1F
MIC [32]: 2 µg/mL (≈ 5.14 µM)

O=C(CCc1ccc(O)cc1)C1=C(O)C(Cc2ccc(O)cc2)CCC1 (stereo unspecified)
MIC [33]: ~3.8 µg/mL (≈ 10.8 µM)
MIC [34]: ~0.7 µg/mL (≈ 1.99 µM)

CCOC(=O)c1c(CSc2nc3ccccc3[nH]2)nc2ccc(Br)cn12
Activity [1]: inactive
inhibition at 10 µM [3]: 37%

From ChEMBL document CHEMBL5500325, “Identification of ethyl-6-bromo-2((phenylthio)methyl)imidazo[1,2-a]pyridine-3-carboxylate as a narrow spectrum inhibitor of Streptococcus pneumoniae and its FtsZ” (Eur J Med Chem, 2024)
